According to ChEMBL document CHEMBL1201862, “PubChem BioAssay data set” (2004):
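Test compounds were applied to cells in 96-well plates for 48 hours at 5 doses. The concentration for 50% growth inhibition is given as GI50.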 The source made the active and inactive calls. Rule as the data show it: active = GI50 up to about 1.1 µM and inactive = higher.

Tests used:
Experiment in all cases: DTP human tumour cell line panel, 48 h
A549 = system: A549
BT-549 = system: BT-549
CCRF-CEM = system: CCRF-CEM
EKVX = system: EKVX
HCT-116 = system: HCT-116
HT-29 = system: HT-29
MDA-MB-435 = system: MDA-MB-435
Malme-3M = system: Malme-3M
NCI-H226 = system: NCI-H226
NCI/ADR-RES = system: NCI/ADR-RES
OVCAR-4 = system: OVCAR-4
PC-3 = system: PC-3
RPMI-8226 = system: RPMI-8226
SF-268 = system: SF-268
SF-295 = system: SF-295
SK-MEL-2 = system: SK-MEL-2
SN12C = system: SN12C
SR = system: SR
SW-620 = system: SW-620
TK-10 = system: TK-10

Structure (SMILES)	GI50 (A549)	GI50 (BT-549)	GI50 (CCRF-CEM)	GI50 (EKVX)	GI50 (HCT-116)	GI50 (HT-29)	GI50 (MDA-MB-435)	GI50 (Malme-3M)	GI50 (NCI-H226)	GI50 (NCI/ADR-RES)	GI50 (OVCAR-4)	GI50 (PC-3)	GI50 (RPMI-8226)	GI50 (SF-268)	GI50 (SF-295)	GI50 (SK-MEL-2)	GI50 (SN12C)	GI50 (SR)	GI50 (SW-620)	GI50 (TK-10)
Cc1n[nH]c(=O)n1/N=C\CC/C=N\n1c(C)n[nH]c1=O	> 100 µM (inactive)	> 100 µM (inactive)	> 100 µM (inactive)	> 100 µM (inactive)	> 100 µM (inactive)	> 100 µM (inactive)	> 100 µM (inactive)	> 100 µM (inactive)	> 100 µM (inactive)	> 100 µM (inactive)	> 100 µM (inactive)	> 100 µM (inactive)	> 100 µM (inactive)	> 100 µM (inactive)	> 100 µM (inactive)	> 100 µM (inactive)	> 100 µM (inactive)	> 100 µM (inactive)	> 100 µM (inactive)	> 100 µM (inactive)
C[As](C)SCC(NC(=O)CCC(N)C(=O)O)C(=O)NCC(=O)O.c1ccncc1 (stereo not given)	0.984 µM (active)	0.168 µM (active)	0.0492 µM (active)	0.182 µM (active)	0.198 µM (active)	0.431 µM (active)	0.0843 µM (active)	0.0389 µM (active)	0.361 µM (active)	0.141 µM (active)	0.592 µM (active)	0.268 µM (active)	0.0421 µM (active)	0.547 µM (active)	3.23 µM (inactive)	0.338 µM (active)	0.506 µM (active)	0.02 µM (active)	0.0855 µM (active)	0.202 µM (active)
O=C(CCCCCCCCC(=O)N1C(=O)CC(=O)N(c2ccc(Cl)cc2)C1=S)N1C(=O)CC(=O)N(c2ccc(Cl)cc2)C1=S	34.2 µM (inactive)	67 µM (inactive)	30.9 µM (inactive)	47.4 µM (inactive)	48.5 µM (inactive)	73.5 µM (inactive)	58.1 µM (inactive)	> 100 µM (inactive)	> 100 µM (inactive)	24.5 µM (inactive)	41.6 µM (inactive)	57.1 µM (inactive)	30.6 µM (inactive)	> 100 µM (inactive)	33 µM (inactive)	49.1 µM (inactive)	> 100 µM (inactive)	8.93 µM (inactive)	> 100 µM (inactive)	> 100 µM (inactive)
O=C(O)c1cc(/N=N/c2ccc([N+](=O)[O-])cc2)ccc1O	32.6 µM (inactive)	42.4 µM (inactive)	28.4 µM (inactive)	19 µM (inactive)	30.5 µM (inactive)	28.8 µM (inactive)	34.9 µM (inactive)	42.6 µM (inactive)	17 µM (inactive)	30.8 µM (inactive)	23.9 µM (inactive)	33.7 µM (inactive)	21.1 µM (inactive)	35.6 µM (inactive)	32.3 µM (inactive)	26.5 µM (inactive)	30.8 µM (inactive)	29.4 µM (inactive)	36 µM (inactive)	25.6 µM (inactive)
C[n+]1c(-c2ccc(/C=N/NC(=O)c3ccc(C(=O)N/N=C/c4ccc(-c5cn6ccccc6[n+]5C)cc4)cc3)cc2)cn2ccccc21	> 100 µM (inactive)	> 100 µM (inactive)	> 34.3 µM (inactive)	> 100 µM (inactive)	> 100 µM (inactive)	> 100 µM (inactive)	> 75.7 µM (inactive)	> 54.6 µM (inactive)	> 100 µM (inactive)	> 100 µM (inactive)	> 100 µM (inactive)	> 100 µM (inactive)	> 100 µM (inactive)	> 100 µM (inactive)	> 100 µM (inactive)	> 100 µM (inactive)	> 100 µM (inactive)	> 100 µM (inactive)	> 100 µM (inactive)	> 83.4 µM (inactive)
C[C@]12CC[C@H](O)C[C@H]1CC[C@@H]1[C@@H]2CC[C@]2(C)[C@@H](C3=CC(=O)OC3)CC[C@]12O [DIGITOXIGENIN]	0.0183 µM (active)	0.0372 µM (active)	0.0297 µM (active)	0.0873 µM (active)	0.0251 µM (active)	0.209 µM (active)	0.217 µM (active)	0.0615 µM (active)	1.27 µM (inactive)	0.115 µM (active)	0.0662 µM (active)	0.149 µM (active)	0.0757 µM (active)	0.0367 µM (active)	0.0473 µM (active)	0.321 µM (active)	0.0349 µM (active)	0.0531 µM (active)	0.118 µM (active)	0.0944 µM (active)
